# Tests used:
# [1] = test system: Low to Intermediate-1 Risk Myelodysplastic Syndrome; test: Clinical study of ezatiostat hydrochloride tablets in IPSS low to intermediate-1 risk MDS patients: hematologic improvement and efficacy; type: in vivo, human; details: for significant RBC transfusion reduction: five of 11 patients; for HI-E Response Rate (95% Confidence Interval): prior DMTI Yes, N 15
# Experimental: Subsequently, 37 patients were treated at 3 grams daily for two weeks followed by a one week rest period, and 36 patients were treated at 2 grams daily for three weeks followed by a one week rest period.
# The median age was 72 years, with a patient population distribution of IPSS low risk (23 patients, 32%) and intermediate-1 risk (50 patients, 68%).
# [2] = test system: Low to Intermediate-1 Risk Myelodysplastic Syndrome; test: Clinical study of ezatiostat hydrochloride tablets in MDS patients: adverse events (safety); type: in vivo, human
# Experimental: Eighty-seven patients were randomized and treated at 23 investigational sites. After initial dose ranging in 14 patients, two dose levels were selected for further study. Subsequently, 37 patients were treated at 3 grams daily for two weeks followed by a one week rest period, and 36 patients were treated at 2 grams daily for three weeks followed by a one week rest period. The data on these 73 patients was pooled for this preliminary analysis.
# The safety data is based on all patients treated.
# [3] = 1 g b.i.d. 3 weeks on & 1 week off (N = 31)
# [4] = 1 g b.i.d. 3 weeks on & 1 week off, 6 responders
# [5] = 1.5 g b.i.d. 2 weeks on & 1 week off (N = 29)
# [6] = 1.5 g b.i.d. 2 weeks on & 1 week off, 7 responders
structure (smiles),measurement,setting,value
"CCOC(=O)[C@@H](N)CCC(=O)N[C@@H](CSCc1ccccc1)C(=O)N[C@@H](C(=O)OCC)c1ccccc1 [Telintra, ethyl (2S)-2-amino-5-[[(2R)-3-benzylsulfanyl-1-[[(1R)-2-ethoxy-2-oxo-1-phenylethyl]amino]-1-oxopropan-2-yl]amino]-5-oxopentanoate]","Duration of HI-E Response, Median (95% CI)",[1]; 1 g b.i.d. 3 weeks on & 1 week off,46.1 (10.0-46.1) Weeks
same,"Time to HI-E Response, Max",[1]; [3],11.3 Weeks
same,"Time to HI-E Response, Mean",[1]; [3],8.9 (1.29) ^ Weeks
same,"Time to HI-E Response, Min",[1]; [3],8.0 Weeks
same,"Duration of HI-E Response, # Censored",[1]; [4],4 (66.7%)
same,"Duration of HI-E Response, # Event",[1]; [4],2 (33.3%)
same,"Duration of HI-E Response, Median (95% CI)",[1]; 1.5 g b.i.d. 2 weeks on & 1 week off,18.4 (3.1-51.0) Weeks
same,"Time to HI-E Response, Max",[1]; [5],10.0 Weeks
same,"Time to HI-E Response, Mean",[1]; [5],8.4 (0.72) ^ Weeks
same,"Time to HI-E Response, Min",[1]; [5],8.0 Weeks
same,"Duration of HI-E Response, # Censored",[1]; [6],2 (28.6%)
same,"Duration of HI-E Response, # Event",[1]; [6],5 (71.4%)
same,RBC transfusion independence,[1]; 4 of 38 RBC transfusion-dependent patients,11%
same,"clinically significant RBC transfusion reductions (reduction of 4 U/8 weeks, IWG 2006)",[1]; 11 of 38 RBC transfusion-dependent patients,29%
same,effect of prior Revlimid treatment on HI-E response,[1]; logistic regression analysis,enhance
same,decrease in the odds for a HI-E response predicted by prior DMTI treatment,"[1]; logistic regression analysis, p=0.023",five-fold
same,significant RBC transfusion reduction,"[1]; no prior Revlimid, no prior DMTI",45%
same,complete remission continued following discontinuation of therapy,[1]; one patient,more than 12 months
same,HI-E Response Rate (95% Confidence Interval),[1]; prior Revlimid No,0.0% (0.0%-21.8%)
same,HI-E Response Rate (95% Confidence Interval),"[1]; prior Revlimid Yes, listed as ezatiostat hydrochloride",about 20%
same,significant RBC transfusion reduction,"[1]; prior Revlimid, no prior DMTI",45%
same,transfusion independence,"[1]; prior Revlimid, no prior DMTI, three of 11 patients",27%
same,"diarrhea, Grade 1 adverse event",[2]; all patients treated,25%
same,"diarrhea, Grade 2 adverse event",[2]; all patients treated,7%
same,"diarrhea, Grade 3 adverse event",[2]; all patients treated,3%
same,"nausea, Grade 1 adverse event",[2]; all patients treated,45%
same,"nausea, Grade 2 adverse event",[2]; all patients treated,16%
same,"nausea, Grade 3 adverse event",[2]; all patients treated,1%
same,"vomiting, Grade 1 adverse event",[2]; all patients treated,30%
same,"vomiting, Grade 2 adverse event",[2]; all patients treated,12%
same,"vomiting, Grade 3 adverse event",[2]; all patients treated,2%
same,incidence of GI AEs with prior DMTI treatment,[2]; patients with prior DMTI treatment,increased incidence
